Test results: ChEMBL document CHEMBL5724914, “Linking interpersonal differences in gut microbiota composition and drug biotransformation activity” (2024)

assay: (§1) The drug is tested on Z-016 corresponding to mouse gut metagenome with ENA study accession number: PRJEB37062 and ENA sample accession number: ERS12561815 for biotransformation under anaerobic condition. The drug concentrations were measured over 9 timepoints collected between 0 and 24 hours of incubation by liquid-chromatography-coupled mass spectrometry (LC–MS); settings: 2 µM
Further: call rule not given here.

SMILES | Bacterial Biotransformation
CC(C)[C@H]1CC[C@H](C(=O)N[C@H](Cc2ccccc2)C(=O)O)CC1 [NATEGLINIDE] | Compound metabolized
CN(C)C(=O)Oc1cccc([N+](C)(C)C)c1.[Br-] [NEOSTIGMINE BROMIDE] | Compound NOT metabolized

assay: as §1, with “Z-027” for “Z-016”, “to” for “to mouse gut”, “ERS12561826” for “ERS12561815”; settings: 2 µM

SMILES | Bacterial Biotransformation
CC(C)[C@H]1CC[C@H](C(=O)N[C@H](Cc2ccccc2)C(=O)O)CC1 [NATEGLINIDE] | Compound metabolized
CN(C)C(=O)Oc1cccc([N+](C)(C)C)c1.[Br-] [NEOSTIGMINE BROMIDE] | Compound NOT metabolized

assay: as §1, with “Z-011” for “Z-016”, “ERS12561811” for “ERS12561815”; settings: 2 µM

SMILES | Bacterial Biotransformation
CC(C)[C@H]1CC[C@H](C(=O)N[C@H](Cc2ccccc2)C(=O)O)CC1 [NATEGLINIDE] | Compound metabolized
CN(C)C(=O)Oc1cccc([N+](C)(C)C)c1.[Br-] [NEOSTIGMINE BROMIDE] | Compound NOT metabolized

assay: as §1, with “Z-024” for “Z-016”, “pig” for “mouse”, “ERS12561823” for “ERS12561815”; settings: 2 µM

SMILES | Bacterial Biotransformation
CC(C)[C@H]1CC[C@H](C(=O)N[C@H](Cc2ccccc2)C(=O)O)CC1 [NATEGLINIDE] | Compound metabolized
CN(C)C(=O)Oc1cccc([N+](C)(C)C)c1.[Br-] [NEOSTIGMINE BROMIDE] | Compound NOT metabolized

settings: human gut metagenome, 24 h, 2 µM

SMILES | Bacterial Biotransformation
CC(C)[C@H]1CC[C@H](C(=O)N[C@H](Cc2ccccc2)C(=O)O)CC1 [NATEGLINIDE] | Compound metabolized
CN(C)C(=O)Oc1cccc([N+](C)(C)C)c1.[Br-] [NEOSTIGMINE BROMIDE] | Compound NOT metabolized

settings: human gut metagenome, 24 h, 2 µM; remark: another data set of the same source

SMILES | Bacterial Biotransformation
CC(C)[C@H]1CC[C@H](C(=O)N[C@H](Cc2ccccc2)C(=O)O)CC1 [NATEGLINIDE] | Compound metabolized
CN(C)C(=O)Oc1cccc([N+](C)(C)C)c1.[Br-] [NEOSTIGMINE BROMIDE] | Compound NOT metabolized

settings: human gut metagenome, 24 h, 2 µM; remark: another data set of the same source

SMILES | Bacterial Biotransformation
CC(C)[C@H]1CC[C@H](C(=O)N[C@H](Cc2ccccc2)C(=O)O)CC1 [NATEGLINIDE] | Compound metabolized
CN(C)C(=O)Oc1cccc([N+](C)(C)C)c1.[Br-] [NEOSTIGMINE BROMIDE] | Compound NOT metabolized

assay: as §1, with “WLS-240” for “Z-016”, “human” for “mouse”, “ERS12561773” for “ERS12561815”; settings: 2 µM

SMILES | Bacterial Biotransformation
CC(C)[C@H]1CC[C@H](C(=O)N[C@H](Cc2ccccc2)C(=O)O)CC1 [NATEGLINIDE] | Compound metabolized
CN(C)C(=O)Oc1cccc([N+](C)(C)C)c1.[Br-] [NEOSTIGMINE BROMIDE] | Compound NOT metabolized

settings: human gut metagenome, 24 h, 2 µM; remark: another data set of the same source

SMILES | Bacterial Biotransformation
CC(C)[C@H]1CC[C@H](C(=O)N[C@H](Cc2ccccc2)C(=O)O)CC1 [NATEGLINIDE] | Compound metabolized
CN(C)C(=O)Oc1cccc([N+](C)(C)C)c1.[Br-] [NEOSTIGMINE BROMIDE] | Compound NOT metabolized

settings: human gut metagenome, 24 h, 2 µM; remark: another data set of the same source

SMILES | Bacterial Biotransformation
CC(C)[C@H]1CC[C@H](C(=O)N[C@H](Cc2ccccc2)C(=O)O)CC1 [NATEGLINIDE] | Compound metabolized
CN(C)C(=O)Oc1cccc([N+](C)(C)C)c1.[Br-] [NEOSTIGMINE BROMIDE] | Compound NOT metabolized

settings: human gut metagenome, 24 h, 2 µM; remark: another data set of the same source

SMILES | Bacterial Biotransformation
CC(C)[C@H]1CC[C@H](C(=O)N[C@H](Cc2ccccc2)C(=O)O)CC1 [NATEGLINIDE] | Compound metabolized
CN(C)C(=O)Oc1cccc([N+](C)(C)C)c1.[Br-] [NEOSTIGMINE BROMIDE] | Compound NOT metabolized

assay: as §1, with “WLS-098” for “Z-016”, “human” for “mouse”, “ERS12561754” for “ERS12561815”; settings: 2 µM

SMILES | Bacterial Biotransformation
CC(C)[C@H]1CC[C@H](C(=O)N[C@H](Cc2ccccc2)C(=O)O)CC1 [NATEGLINIDE] | Compound metabolized
CN(C)C(=O)Oc1cccc([N+](C)(C)C)c1.[Br-] [NEOSTIGMINE BROMIDE] | Compound NOT metabolized

assay: as §1, with “WLS-038” for “Z-016”, “human” for “mouse”, “ERS12561745” for “ERS12561815”; settings: 2 µM

SMILES | Bacterial Biotransformation
CC(C)[C@H]1CC[C@H](C(=O)N[C@H](Cc2ccccc2)C(=O)O)CC1 [NATEGLINIDE] | Compound metabolized
CN(C)C(=O)Oc1cccc([N+](C)(C)C)c1.[Br-] [NEOSTIGMINE BROMIDE] | Compound NOT metabolized

assay: as §1, with “WLS-069” for “Z-016”, “human” for “mouse”, “ERS12561748” for “ERS12561815”; settings: 2 µM

SMILES | Bacterial Biotransformation
CC(C)[C@H]1CC[C@H](C(=O)N[C@H](Cc2ccccc2)C(=O)O)CC1 [NATEGLINIDE] | Compound metabolized
CN(C)C(=O)Oc1cccc([N+](C)(C)C)c1.[Br-] [NEOSTIGMINE BROMIDE] | Compound NOT metabolized

settings: human gut metagenome, 24 h, 2 µM; remark: another data set of the same source

SMILES | Bacterial Biotransformation
CC(C)[C@H]1CC[C@H](C(=O)N[C@H](Cc2ccccc2)C(=O)O)CC1 [NATEGLINIDE] | Compound metabolized
CN(C)C(=O)Oc1cccc([N+](C)(C)C)c1.[Br-] [NEOSTIGMINE BROMIDE] | Compound NOT metabolized

assay: as §1, with “Z-029” for “Z-016”, “rat” for “mouse”, “ERS12561828” for “ERS12561815”; settings: 2 µM

SMILES | Bacterial Biotransformation
CC(C)[C@H]1CC[C@H](C(=O)N[C@H](Cc2ccccc2)C(=O)O)CC1 [NATEGLINIDE] | Compound NOT metabolized
CN(C)C(=O)Oc1cccc([N+](C)(C)C)c1.[Br-] [NEOSTIGMINE BROMIDE] | Compound metabolized

settings: human gut metagenome, 24 h, 2 µM; remark: another data set of the same source

SMILES | Bacterial Biotransformation
CC(C)[C@H]1CC[C@H](C(=O)N[C@H](Cc2ccccc2)C(=O)O)CC1 [NATEGLINIDE] | Compound metabolized
CN(C)C(=O)Oc1cccc([N+](C)(C)C)c1.[Br-] [NEOSTIGMINE BROMIDE] | Compound NOT metabolized

assay: as §1, with “Z-012” for “Z-016”, “to” for “to mouse gut”, “ERS12561812” for “ERS12561815”; settings: 2 µM

SMILES | Bacterial Biotransformation
CC(C)[C@H]1CC[C@H](C(=O)N[C@H](Cc2ccccc2)C(=O)O)CC1 [NATEGLINIDE] | Compound NOT metabolized
CN(C)C(=O)Oc1cccc([N+](C)(C)C)c1.[Br-] [NEOSTIGMINE BROMIDE] | Compound NOT metabolized

assay: as §1, with “Z-002” for “Z-016”, “rabbit” for “mouse”, “ERS12561802” for “ERS12561815”; settings: 2 µM

SMILES | Bacterial Biotransformation
CC(C)[C@H]1CC[C@H](C(=O)N[C@H](Cc2ccccc2)C(=O)O)CC1 [NATEGLINIDE] | Compound metabolized
CN(C)C(=O)Oc1cccc([N+](C)(C)C)c1.[Br-] [NEOSTIGMINE BROMIDE] | Compound metabolized

settings: human gut metagenome, 24 h, 2 µM; remark: another data set of the same source

SMILES | Bacterial Biotransformation
CC(C)[C@H]1CC[C@H](C(=O)N[C@H](Cc2ccccc2)C(=O)O)CC1 [NATEGLINIDE] | Compound metabolized
CN(C)C(=O)Oc1cccc([N+](C)(C)C)c1.[Br-] [NEOSTIGMINE BROMIDE] | Compound NOT metabolized
